Measurements taken from the NIST ThermoML archive (doi:10.1016/j.jct.2018.02.013).

Experiments:
[1] = 101.33 kPa, Liquid; for thermal conductivity: transient hot wire; for mass density: Vibrating tube method; for viscosity: Cone and plate viscometry; for electrical conductivity: Direct current cell with electrodes
[2] = molar heat capacity at constant pressure; details: 101.33 kPa, Liquid, Small sample (50 mg) DSC

CCCCCCCCn1cc[n+](C)c1.O=S(=O)([N-]S(=O)(=O)C(F)(F)F)C(F)(F)F
[1]
Details	thermal conductivity [W/m/K]
280.03 K	0.1289
288.73 K	0.1279
297.76 K	0.1279
307.59 K	0.1279
318.58 K	0.1265
328.58 K	0.1259
337.48 K	0.1259
347.72 K	0.1259
357.76 K	0.1245

CC(=O)[O-].CCCCCCCCCCCCCC[P+](CCCCCC)(CCCCCC)CCCCCC [trihexyl(tetradecyl)phosphonium acetate]
Details	electrical conductivity [S/m]	mass density [kg/m3]	molar heat capacity at constant pressure [J/K/mol]	thermal conductivity [W/m/K]	viscosity [mPa·s]
[1], 278.37 K	–	–	–	0.1629	–
[1], 288.1 K	–	–	–	0.1612	–
[1], 293.15 K	–	897.6	–	–	–
[1], 293.2 K	–	–	–	–	254
[1], 298.15 K	–	894.6	–	–	–
[1], 298.16 K	–	–	–	0.1602	–
[1], 298.2 K	–	–	–	–	196.2
[1], 299.6 K	0.00554	–	–	–	–
[1], 303.15 K	–	891.5	–	–	–
[1], 303.2 K	–	–	–	–	151.2
[1], 303.9 K	0.00767	–	–	–	–
[1], 307.92 K	–	–	–	0.1598	–
[1], 308.2 K	–	–	–	–	117.4
[1], 308.7 K	0.0101	–	–	–	–
[1], 313.15 K	–	885.2	–	–	–
[1], 313.2 K	–	–	–	–	92.23
[1], 313.7 K	0.0129	–	–	–	–
[1], 317.98 K	–	–	–	0.1582	–
[1], 318.2 K	–	–	–	–	73.75
[1], 318.8 K	0.0167	–	–	–	–
[1], 323.15 K	–	879	–	–	–
[1], 323.2 K	–	–	–	–	59.32
[1], 323.8 K	0.0209	–	–	–	–
[1], 328.08 K	–	–	–	0.1565	–
[1], 328.2 K	–	–	–	–	48.52
[1], 328.8 K	0.026	–	–	–	–
[1], 333.15 K	–	872.9	–	–	–
[1], 333.2 K	–	–	–	–	40.22
[1], 333.9 K	0.0317	–	–	–	–
[1], 338 K	–	–	–	0.1558	–
[1], 338.2 K	–	–	–	–	33.78
[1], 338.9 K	0.0383	–	–	–	–
[1], 343.15 K	–	866.7	–	–	–
[1], 343.2 K	–	–	–	–	28.55
[1], 343.9 K	0.0458	–	–	–	–
[1], 348.06 K	–	–	–	0.1551	–
[1], 348.2 K	–	–	–	–	24.46
[1], 349 K	0.0542	–	–	–	–
[1], 353.15 K	–	860.7	–	–	–
[1], 353.2 K	–	–	–	–	20.95
[1], 357.1 K	–	–	–	0.1541	–
[1], 358.2 K	–	–	–	–	18.13
[1], 363.15 K	–	854.7	–	–	–
[1], 363.2 K	–	–	–	–	15.71
[1], 368.2 K	–	–	–	–	13.72
[2], 293.15 K	–	–	1095.6	–	–
[2], 298.15 K	–	–	1097.7	–	–
[2], 303.15 K	–	–	1101.5	–	–
[2], 308.15 K	–	–	1105.9	–	–
[2], 313.15 K	–	–	1111.3	–	–
[2], 318.15 K	–	–	1116.7	–	–
[2], 323.15 K	–	–	1122.7	–	–
[2], 328.15 K	–	–	1128.1	–	–
[2], 333.15 K	–	–	1134.1	–	–
[2], 338.15 K	–	–	1140.6	–	–
[2], 343.15 K	–	–	1147.1	–	–
[2], 348.15 K	–	–	1154.2	–	–
[2], 353.15 K	–	–	1158.5	–	–
[2], 358.15 K	–	–	1166.7	–	–
[2], 363.15 K	–	–	1173.2	–	–

CCCC(=O)[O-].CCCCCCCCCCCCCC[P+](CCCCCC)(CCCCCC)CCCCCC [trihexyl(tetradecyl)phosphonium butyrate]
Details	electrical conductivity [S/m]	mass density [kg/m3]	molar heat capacity at constant pressure [J/K/mol]	thermal conductivity [W/m/K]	viscosity [mPa·s]
[1], 277.77 K	–	–	–	0.16	–
[1], 288.17 K	–	–	–	0.159	–
[1], 293.15 K	–	893	–	–	–
[1], 293.2 K	–	–	–	–	334.3
[1], 295.2 K	0.00389	–	–	–	–
[1], 298.15 K	–	890.4	–	–	–
[1], 298.2 K	–	–	–	–	251.1
[1], 298.48 K	–	–	–	0.1566	–
[1], 303.15 K	–	887.8	–	–	–
[1], 303.2 K	–	–	–	–	190.2
[1], 303.8 K	0.00631	–	–	–	–
[1], 306.44 K	–	–	–	0.1553	–
[1], 308.2 K	–	–	–	–	146.3
[1], 308.5 K	0.0083	–	–	–	–
[1], 313.15 K	–	881.2	–	–	–
[1], 313.2 K	–	–	–	–	115
[1], 313.9 K	0.0106	–	–	–	–
[1], 318.11 K	–	–	–	0.1543	–
[1], 318.2 K	–	–	–	–	91.46
[1], 318.5 K	0.0137	–	–	–	–
[1], 323.15 K	–	875.1	–	–	–
[1], 323.2 K	–	–	–	–	74.08
[1], 323.6 K	0.0172	–	–	–	–
[1], 327.69 K	–	–	–	0.1526	–
[1], 328.2 K	–	–	–	–	60.22
[1], 328.8 K	0.0214	–	–	–	–
[1], 333.15 K	–	869	–	–	–
[1], 333.2 K	–	–	–	–	49.78
[1], 333.8 K	0.0261	–	–	–	–
[1], 336.59 K	–	–	–	0.1509	–
[1], 338.2 K	–	–	–	–	41.11
[1], 338.7 K	0.0315	–	–	–	–
[1], 343.15 K	–	862.7	–	–	–
[1], 343.2 K	–	–	–	–	34.26
[1], 343.9 K	0.0377	–	–	–	–
[1], 348.16 K	–	–	–	0.1503	–
[1], 348.2 K	–	–	–	–	28.85
[1], 349.1 K	0.0446	–	–	–	–
[1], 353.15 K	–	856.7	–	–	–
[1], 353.2 K	–	–	–	–	24.66
[1], 355.83 K	–	–	–	0.1492	–
[1], 358.2 K	–	–	–	–	21.36
[1], 363.15 K	–	850.3	–	–	–
[1], 363.2 K	–	–	–	–	18.76
[1], 368.2 K	–	–	–	–	16.49
[2], 293.15 K	–	–	1107.1	–	–
[2], 298.15 K	–	–	1112.8	–	–
[2], 303.15 K	–	–	1118.5	–	–
[2], 308.15 K	–	–	1123.6	–	–
[2], 313.15 K	–	–	1129.9	–	–
[2], 318.15 K	–	–	1136.2	–	–
[2], 323.15 K	–	–	1142.5	–	–
[2], 328.15 K	–	–	1148.2	–	–
[2], 333.15 K	–	–	1154.5	–	–
[2], 338.15 K	–	–	1161.3	–	–
[2], 343.15 K	–	–	1168.2	–	–
[2], 348.15 K	–	–	1175	–	–
[2], 353.15 K	–	–	1181.9	–	–
[2], 358.15 K	–	–	1188.7	–	–
[2], 363.15 K	–	–	1196.1	–	–
